In patent publication US20210137898A1, “METHODS TO TREAT GLIOMAS USING A STAT3 INHIBITOR” (Mayo Foundation for Medical Education and Research, priority 2017, published 2021):

Experiments:
[1] = system: H3K27me3 in H3K27M tumor cells (Peds8); assay: Global H3K27 trimethylation in H3K27M tumor cells after treatment; format: cell-based; conditions: vs no treatment (NT), FIG. 6B-D
Protocol: (§1) The role of STAT3 in midline H3K27M tumors (e.g., diffuse midline H3K27M tumors) has not been studied. To further validate STAT3 signaling as a potential drug target in these patients, it was determined if STAT3 is required for proliferation of H3K27M cells. […] Because of the critical dependence of STAT3 signaling in H3K27M tumor cells, the activity of STAT3 (pSTAT3) would be elevated in patients with DIPG tumors. Using treatment naive surgical samples from DIPG patients, an increase (>10-fold) in pSTAT3 levels was observed as compared to non-neoplastic brain tissues from other surgeries (FIG. 5A). Using large cohorts from published data sets, it was also seen a >2-fold increase in STAT3 mRNA expression (RNA-seq) in DIPG patients compared to normal brainy (FIG. 5B). In addition, pSTAT3 expression levels were increased in H3K27M cell lines compared to WT lines in both pediatric and adult high-grade gliomas (FIG. 6). […] The data presented supports a method of treating glioma with H3K27M mutation by restoration of methylation pattern. In one example, the methylation pattern is restored by a H3K27me3 demethylase inhibitor (e.g., GSK-J4).

DIPG8 H3K27M cells = assay: Cell viability, STAT3 inhibitors, H3K27M cells DIPG8; format: cell-based; conditions: FIG. 4B/4C
Protocol: (§2) Results are mean±SD of three independent experiments. B and C. H3K27M cells (Peds8 and DIPG8) are selectively sensitive to inhibition by STAT3 inhibitors. […] C.
as §1

H3K27M tumor Peds17 = system: H3K27M tumor Peds17; design: species or system mice; conditions: mouse, in vivo, po
Protocol: H3K27M tumor Peds17 treated with STAT3 inhibitor WP1066 (20 mg/kg oral gavage) vs. control (DMSO) for 8 weeks. […] Cohorts of mice (n=10/group), were implanted in the brainstem and BLI was performed weekly using IVIS Lumina imaging system using luciferase transfected tumor cells.
To validate STAT3 as a therapeutic target for H3K27M tumors, the effects on tumor growth with WP1066 were evaluated in intracranial orthotopic xenografts (FIG. 7).

WT SF9427 cell line = assay: Cell viability, STAT3 inhibitors, WT SF9427 cell line; format: cell-based; conditions: WT SF9427 cells, FIG. 4B/4C
Protocol: as §2, §1

Peds8 H3K27M cells = assay: Cell viability, STAT3 inhibitors, H3K27M cells Peds8; format: cell-based
Protocol: as §2, §1

| SMILES | H3K27me3 level [1] | IC50 (DIPG8 H3K27M cells) [nM] | toxicities in the mice (H3K27M tumor Peds17) | IC50 (WT SF9427 cell line) [nM] | IC50 (Peds8 H3K27M cells; Peds8 (H3K27M) cells, FIG. 4B/4C) [nM] | cell viability of two H3K27M DIPG cell lines (Peds8 H3K27M cells; two H3K27M DIPG cell lines, much less in WT SF9427 cell line) |
| --- | --- | --- | --- | --- | --- | --- |
| CCOC(=O)CCNc1cc(N2CCc3ccccc3CC2)nc(-c2ccccn2)n1 [GSKJ4] | increases H3K27me3 |  |  |  |  |  |
| C[C@H](NC(=O)/C(C#N)=C/c1cccc(Br)n1)c1ccccc1 [WP1066] | increases H3K27me3 | 2500 | no toxicities were noted | 62300 | 1900 | inhibited cell viability |
